Laboratory results as given in patent US20260232763A1 (Kadmon Corporation, LLC, priority 2023, published 2026).
Where two headings read alike, the source gives them in different places.

Tests used:
solubility = format: physicochemical; settings: in vitro assessments
human serum albumin = human serum albumin (Homo sapiens, UniProt P02768); settings: in vitro; cited from earlier work
P-gp = P-gp (Homo sapiens, UniProt P08183); settings: in vitro, cited from earlier work
CYP2C19 = CYP2C19 (Homo sapiens, UniProt P33261); settings: in vitro; cited from earlier work
Chain of CYP2C19 (P33261 whole entry): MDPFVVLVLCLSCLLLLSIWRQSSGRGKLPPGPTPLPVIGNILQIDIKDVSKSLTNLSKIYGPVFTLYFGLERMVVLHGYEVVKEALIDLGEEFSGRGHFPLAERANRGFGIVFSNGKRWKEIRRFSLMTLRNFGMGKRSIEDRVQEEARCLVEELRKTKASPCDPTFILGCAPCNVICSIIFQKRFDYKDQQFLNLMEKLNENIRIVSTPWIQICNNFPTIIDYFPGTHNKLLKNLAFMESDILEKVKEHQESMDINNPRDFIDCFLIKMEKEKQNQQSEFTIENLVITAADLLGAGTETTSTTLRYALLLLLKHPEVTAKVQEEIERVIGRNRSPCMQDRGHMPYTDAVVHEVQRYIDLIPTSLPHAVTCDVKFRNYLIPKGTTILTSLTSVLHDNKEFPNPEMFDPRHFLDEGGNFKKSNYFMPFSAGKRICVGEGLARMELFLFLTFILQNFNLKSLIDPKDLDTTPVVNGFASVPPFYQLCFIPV

CYP3A4 [1] = target: T1, CYP3A4 (Homo sapiens, UniProt P08684); settings: in vitro; cited from earlier work
T1 sequence (P08684 whole entry): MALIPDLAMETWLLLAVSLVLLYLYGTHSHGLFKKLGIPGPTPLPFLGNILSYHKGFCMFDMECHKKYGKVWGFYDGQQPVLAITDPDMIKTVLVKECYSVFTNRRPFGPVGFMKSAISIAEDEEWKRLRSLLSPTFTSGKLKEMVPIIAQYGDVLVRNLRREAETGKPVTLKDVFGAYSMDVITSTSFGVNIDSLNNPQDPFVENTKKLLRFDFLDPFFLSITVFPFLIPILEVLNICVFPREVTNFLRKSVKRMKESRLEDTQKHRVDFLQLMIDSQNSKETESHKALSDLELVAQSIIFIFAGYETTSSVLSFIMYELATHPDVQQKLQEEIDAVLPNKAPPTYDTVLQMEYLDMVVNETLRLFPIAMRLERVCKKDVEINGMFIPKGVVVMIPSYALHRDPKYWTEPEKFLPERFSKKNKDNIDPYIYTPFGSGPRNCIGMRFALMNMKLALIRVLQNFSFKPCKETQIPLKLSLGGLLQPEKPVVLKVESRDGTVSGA

clinical [2] = settings: male, human, in vivo
Protocol: (§1) On Day 10, the victim and perpetrator IMPs were administered simultaneously.
(§2) On the evening before each dose, participants were provided with a light snack and were required to fast from all food and drink (except water) for a minimum of 10 hours until the following morning. All study interventions were administered in the fed state, following completion of a standard breakfast (with dosing planned to occur 30 minutes after the start of the breakfast).
(§3) The PK parameters underwent a natural logarithmic transformation and were analyzed using a mixed effect modelling technique. Adjusted geometric mean ratios and 90% confidence intervals (CIs) of the ratios were obtained for each comparison. The ratio was defined as test/reference. In addition, the intraparticipant variability were also presented. […] No formal interim analyses were performed for this study.

pregnant rabbits = settings: cited from earlier work
CYP2D6 = CYP2D6 (Homo sapiens, UniProt P10635); settings: in vitro; cited from earlier work
Chain of CYP2D6 (P10635 whole entry): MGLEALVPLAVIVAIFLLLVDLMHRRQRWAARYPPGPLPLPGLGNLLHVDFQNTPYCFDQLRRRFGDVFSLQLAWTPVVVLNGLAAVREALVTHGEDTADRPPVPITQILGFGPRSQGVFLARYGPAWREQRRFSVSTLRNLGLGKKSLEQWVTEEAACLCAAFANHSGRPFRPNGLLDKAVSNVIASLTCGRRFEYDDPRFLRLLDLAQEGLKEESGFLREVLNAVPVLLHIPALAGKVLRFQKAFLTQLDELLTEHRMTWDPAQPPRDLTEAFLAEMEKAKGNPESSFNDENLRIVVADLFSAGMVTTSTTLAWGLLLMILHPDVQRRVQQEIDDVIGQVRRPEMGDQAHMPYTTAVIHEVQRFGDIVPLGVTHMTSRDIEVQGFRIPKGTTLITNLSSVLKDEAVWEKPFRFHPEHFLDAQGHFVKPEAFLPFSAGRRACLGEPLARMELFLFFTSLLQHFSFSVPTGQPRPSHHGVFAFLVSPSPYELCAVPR

[3] = healthy subjects, cited from earlier work
clinical [4] = settings: male, human, in vivo; remark: listed apart in the source
Protocol: as §1, §2, §3

CYP3A4 [5] = target: T1, CYP3A4; test: in vitro metabolism; format: in vitro ADME; settings: in vitro assessments
dogs = settings: cited from earlier work
UGT1A1 = target: T2, UGT1A1 (Homo sapiens, UniProt P22309); settings: in vitro; cited from earlier work
T2 sequence (P22309 26-533): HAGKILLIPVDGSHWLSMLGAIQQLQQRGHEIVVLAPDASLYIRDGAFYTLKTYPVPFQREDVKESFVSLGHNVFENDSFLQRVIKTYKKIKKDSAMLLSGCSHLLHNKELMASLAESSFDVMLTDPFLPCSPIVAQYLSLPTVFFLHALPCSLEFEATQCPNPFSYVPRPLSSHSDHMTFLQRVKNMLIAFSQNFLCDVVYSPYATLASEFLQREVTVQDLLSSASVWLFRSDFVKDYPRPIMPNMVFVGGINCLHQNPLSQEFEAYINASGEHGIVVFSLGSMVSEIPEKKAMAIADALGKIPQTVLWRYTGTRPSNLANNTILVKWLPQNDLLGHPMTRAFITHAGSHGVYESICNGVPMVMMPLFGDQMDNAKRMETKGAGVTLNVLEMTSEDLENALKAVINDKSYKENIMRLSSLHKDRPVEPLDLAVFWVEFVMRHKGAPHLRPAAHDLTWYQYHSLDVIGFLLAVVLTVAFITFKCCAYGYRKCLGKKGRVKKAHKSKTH

[6] = test system: human […]1-acid glycoprotein; settings: in vitro; cited from earlier work
OATP1B1 = target: T3, OATP1B1 (Homo sapiens, UniProt Q9Y6L6); settings: in vitro, at clinically relevant concentrations; cited from earlier work
T3 sequence (Q9Y6L6 1-691): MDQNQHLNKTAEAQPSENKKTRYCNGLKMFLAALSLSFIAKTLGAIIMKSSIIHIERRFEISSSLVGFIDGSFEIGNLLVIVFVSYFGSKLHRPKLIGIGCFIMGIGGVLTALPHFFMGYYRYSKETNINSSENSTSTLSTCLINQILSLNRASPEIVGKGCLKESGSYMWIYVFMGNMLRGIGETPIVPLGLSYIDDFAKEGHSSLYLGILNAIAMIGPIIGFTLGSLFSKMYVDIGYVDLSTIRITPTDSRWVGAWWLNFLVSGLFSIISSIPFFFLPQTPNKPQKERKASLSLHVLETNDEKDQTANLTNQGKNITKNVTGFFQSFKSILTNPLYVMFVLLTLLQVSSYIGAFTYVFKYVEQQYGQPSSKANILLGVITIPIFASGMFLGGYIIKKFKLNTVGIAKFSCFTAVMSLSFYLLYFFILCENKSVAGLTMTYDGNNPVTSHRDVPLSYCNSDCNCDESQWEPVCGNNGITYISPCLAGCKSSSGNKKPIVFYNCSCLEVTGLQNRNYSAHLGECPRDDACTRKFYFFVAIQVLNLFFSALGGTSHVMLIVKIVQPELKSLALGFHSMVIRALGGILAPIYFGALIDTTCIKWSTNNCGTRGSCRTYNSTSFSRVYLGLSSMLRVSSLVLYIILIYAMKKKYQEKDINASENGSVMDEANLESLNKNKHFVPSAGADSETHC

[7] = single oral dose of radiolabeled belumosudil

Chain of P-gp (P08183 whole entry): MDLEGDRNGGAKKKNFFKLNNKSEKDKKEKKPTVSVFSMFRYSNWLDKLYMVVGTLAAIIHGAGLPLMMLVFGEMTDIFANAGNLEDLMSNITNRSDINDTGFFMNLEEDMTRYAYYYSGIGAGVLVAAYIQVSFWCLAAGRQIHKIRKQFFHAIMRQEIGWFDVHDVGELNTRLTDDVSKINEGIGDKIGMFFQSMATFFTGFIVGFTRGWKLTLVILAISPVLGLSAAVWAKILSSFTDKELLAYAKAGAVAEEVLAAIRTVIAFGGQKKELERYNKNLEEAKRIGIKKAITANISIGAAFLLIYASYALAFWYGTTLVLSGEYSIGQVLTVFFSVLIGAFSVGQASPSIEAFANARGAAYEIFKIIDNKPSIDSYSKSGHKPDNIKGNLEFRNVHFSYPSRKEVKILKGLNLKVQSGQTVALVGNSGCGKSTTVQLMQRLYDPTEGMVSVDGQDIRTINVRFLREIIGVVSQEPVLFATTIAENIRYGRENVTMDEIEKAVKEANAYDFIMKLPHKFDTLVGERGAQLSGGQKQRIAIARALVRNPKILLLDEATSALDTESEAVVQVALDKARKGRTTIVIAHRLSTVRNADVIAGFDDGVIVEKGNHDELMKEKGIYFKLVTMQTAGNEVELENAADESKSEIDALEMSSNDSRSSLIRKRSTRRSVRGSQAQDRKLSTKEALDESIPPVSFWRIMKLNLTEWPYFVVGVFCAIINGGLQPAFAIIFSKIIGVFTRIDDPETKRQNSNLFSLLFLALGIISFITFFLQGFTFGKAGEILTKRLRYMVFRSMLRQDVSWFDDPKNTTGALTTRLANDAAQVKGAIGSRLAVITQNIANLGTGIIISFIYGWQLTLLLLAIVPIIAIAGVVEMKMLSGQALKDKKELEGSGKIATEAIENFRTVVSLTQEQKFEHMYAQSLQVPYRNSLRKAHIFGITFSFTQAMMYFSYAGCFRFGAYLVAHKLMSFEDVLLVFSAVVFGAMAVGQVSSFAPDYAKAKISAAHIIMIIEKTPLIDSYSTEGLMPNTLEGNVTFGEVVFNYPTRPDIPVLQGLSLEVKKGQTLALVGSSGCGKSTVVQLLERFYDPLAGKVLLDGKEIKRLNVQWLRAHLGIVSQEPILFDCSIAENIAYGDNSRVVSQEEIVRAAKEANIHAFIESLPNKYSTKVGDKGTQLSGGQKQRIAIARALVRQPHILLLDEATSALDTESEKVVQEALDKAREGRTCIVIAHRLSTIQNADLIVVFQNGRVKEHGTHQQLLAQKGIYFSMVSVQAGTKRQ
Chain of human serum albumin (P02768 25-609): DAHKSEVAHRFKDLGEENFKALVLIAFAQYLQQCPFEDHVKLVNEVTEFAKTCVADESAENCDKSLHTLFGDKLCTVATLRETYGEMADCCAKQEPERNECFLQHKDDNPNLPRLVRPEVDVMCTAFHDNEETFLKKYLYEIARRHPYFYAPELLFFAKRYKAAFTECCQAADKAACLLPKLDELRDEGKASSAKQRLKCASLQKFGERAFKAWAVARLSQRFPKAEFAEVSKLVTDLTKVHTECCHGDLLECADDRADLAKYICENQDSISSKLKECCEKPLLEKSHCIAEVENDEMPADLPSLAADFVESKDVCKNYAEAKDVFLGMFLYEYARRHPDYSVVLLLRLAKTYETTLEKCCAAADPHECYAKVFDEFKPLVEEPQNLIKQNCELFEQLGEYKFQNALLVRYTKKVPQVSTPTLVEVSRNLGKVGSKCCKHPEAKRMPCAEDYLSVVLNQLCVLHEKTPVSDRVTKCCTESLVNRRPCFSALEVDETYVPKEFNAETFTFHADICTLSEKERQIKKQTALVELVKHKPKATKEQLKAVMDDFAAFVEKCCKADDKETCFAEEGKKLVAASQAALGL

## CC(C)NC(=O)COc1cccc(-c2nc(Nc3ccc4[nH]ncc4c3)c3ccccc3n2)c1 [belumosudil, 2-{3-[4-(1H-indazol-5-ylamino)-2-quinazolinyl]phenoxy}-N-(propan-2-yl) acetamide]
solubility
  solubility: pH dependent
Human serum albumin
  binding to human serum albumin: 99.9%
P-gp; at clinically relevant concentrations
  P-gp inhibition: inhibits
P-gp
  P-gp substrate status: substrate of P-gp
CYP2C19
  CYP2C19 inhibition: inhibitor
CYP3A4 [1]
  metabolism: primarily metabolized by CYP3A4 and to a lesser extent by CYP2C8, CYP2D6, and UGT1A9
Clinical [2]
  Tmax: 1.5 to 2 h
  increase of exposures (Cmax and AUC) following multiple dosing: 1.21-1.57 fold
Clinical [2]; 200 mg
  AUC(0-last), geometric mean: 9710 ng·h/mL
  AUC(0-tau), geometric mean: 9710 ng·h/mL
  Cmax, geometric mean: 2080 ng/mL
  T1/2, geometric mean: 4.901 h
  half-life: ~5 h
Pregnant rabbits; pregnant rabbits, period of organogenesis
  maternal exposures (AUC) with adverse developmental outcomes, times the human exposure (AUC) at the recommended dose: ≥ 0.07 times
Pregnant rabbits; rabbits, oral
  dose with embryo-fetal effects: ≥ 50 mg/kg/day
  dose with maternal toxicity (body weight loss and mortality): ≥ 125 mg/kg/day
CYP2D6
  CYP2D6 inhibition: inhibitor
[3]; single dose
  AUC increase with high-fat and high-calorie meal compared to fasted state: 2 times
  Cmax increase with high-fat and high-calorie meal compared to fasted state: 2.2 times
[3]; [7]
  radioactivity recovered in feces: 85%
  radioactivity recovered in feces as unchanged: 30%
  radioactivity recovered in urine: less than 5%
Clinical [4]
  Tmax: 1.5 to 3 h
  increase of exposures (Cmax and AUC) following multiple dosing: 1.30-1.49 fold
Clinical [4]; 200 mg
  AUC(0-last), geometric mean: 9200 ng·h/mL
  AUC(0-tau), geometric mean: 9330 ng·h/mL
52 participants, Grade 1 (mild)
  participants reporting a TEAE: 3.8%
headache
  number of TEAEs judged related to belumosudil: 1 event
Healthy male participants, 200 mg QD
  safety and tolerability when coadministered with raltegravir, dabigatran etexilate, rosuvastatin calcium: safe and well tolerated
In vivo
  serious adverse events or TEAEs leading to withdrawal or death: No serious adverse events
CYP3A4 [5]
  metabolism: primarily dependent on cytochrome P450 CYP3A4 activity
dogs
  dose with spermatozoa degeneration: 35 mg/kg/day
UGT1A1
  UGT1A1 inhibition: inhibitor
[6]
  binding to human […]1-acid glycoprotein: 98.6%
OATP1B1
  OATP1B1 inhibition: inhibits
